Results published in PMC5597618, “Identification and characterization of the novel reversible and selective cathepsin X inhibitors” (Scientific Reports, 2017).

Test system: PC-3 cells
Experiment: Cellular uptake and retention by LC-MS/MS
Type: in vitro ADME, human
Details: 50 µM, after 1 hour
Experimental: Evaluation of cellular uptake and retention of compound 22: sample preparation and LC- […]
PC-3 cells were treated for 1 hour with compound 22 (50 µM). Cells were washed twice with cold PBS, trypsinized, washed once more and centrifuged. A pellet of cells was resuspended in 200 µL of PBS (or in 200 µL of PBS containing 5µM inhibitor for standard addition) and transferred to 1.5 mL Eppendorf vials prefilled with 0.1 mm and 0.5 mm glass beads (NextAdvance, USA). All cell samples were then homogenized with a BulletBlender (NextAdvance, USA) for 5 min at speed setting »6«. […]
(2.30;50), (2.50;50), (2.6;5). […] ESI Jetstream parameters were set as follows: drying gas temperature 275 °C, drying gas flow 5 L/min, nebulizer 45 psi, sheath gas temperature 320 °C, sheath gas flow 11 L/min, capillary entrance voltage 4000 V and nozzle voltage 1000 V. Quadrupoles Q1 and Q3 were set at the widest resolution (2.5 amu) and multiple reaction monitoring (MRM) mass transitions used for the quantification of recorded traces are presented in Supplementary Table S4. […]
PC-3 cell lysate was diluted in cathepsin X assay buffer (1 mg/ml protein concentration). […] After blocking with 5% skimmed milk powder in TBS with 0.05% Tween 20, membrane was incubated with streptavidin-HRP (1:5000; Jackson ImmunoResearch) for 1 hour and proteins were detected with […]

% of 22 in the cell media: 84%
Compound: CC(C)n1cnnc1SCC(=O)c1ccc2c(c1)OCCO2 [Compound 22, 1-(2,3-Dihydrobenzo[b][1,4]dioxin-6-yl)-2-((4-isopropyl-4H-1,2,4-triazol-3-yl)thio)ethan-1-one]
